Laboratory results: patent US9409905B2, “Antibacterial compounds and methods for use” (PTC THERAPEUTICS, INC., priority 2011, dated 2016)
Values after ≈ are worked out from the molar mass of the structure shown.

What was measured:
[1] = system: Acinetobacter baumannii (A. baumannii) BAA747; assay: Antibacterial activity, MIC (Table 4); format: cell-based; conditions: A. baumannii BAA747, read-out: MIC, BAA747
Method in brief: (§1)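 MIC in μg/mL by microbroth dilution, scored as the lowest level that suppresses visible growth.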

[2] = system: Klebsiella pneumoniae (K. pneumoniae) 35657; assay: Antibacterial activity, MIC (Table 4); format: cell-based; conditions: K. pneumoniae 35657, read-out: MIC, 35657
Method in brief: as §1

[3] = system: Staphylococcus aureus (S. aureus) 29213; assay: Antibacterial activity, microbroth dilution MIC (Table 1); format: cell-based; conditions: microbroth dilution, Gram-positive S. aureus 29213, read-out: MIC, 29213
Method in brief: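 Each strain is exposed to test compound in a microbroth dilution series; visible growth is scored macroscopically, and the lowest growth-free concentration is recorded as MIC in μg/mL.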

[4] = system: Escherichia coli (E. coli) BAS849; assay: as above; format: cell-based; conditions: microbroth dilution, super sensitive Gram-negative E. coli BAS849, read-out: MIC, BAS849
Method in brief: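 Read-out: visual absence of growth. The lowest concentration meeting this gives the MIC, expressed in μg/mL, with microbroth dilution as the method.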

E. coli 25922 = assay: as above; format: cell-based, Escherichia coli; conditions: Escherichia coli; microbroth dilution; control Gram-negative E. coli 25922 strain; read-out: MIC, 25922
Method in brief: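 Broth microdilution against S. aureus 29213, E. coli 25922 and hypersensitive E. coli BAS849. MIC in μg/mL is the lowest drug concentration preventing macroscopically visible growth under test conditions.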

E. coli LZ3111 = assay: Antibacterial activity, MIC, quinolone resistant strain (Table 2); format: cell-based; conditions: Escherichia coli, LZ3111, read-out: MIC LZ3111
Method in brief: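 Broth microdilution. Read-out: MIC in μg/mL, taken as lowest concentration with no macroscopically visible growth.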

[5] = system: Pseudomonas aeruginosa (P. aeruginosa) 27853; assay: Antibacterial activity, MIC (Table 5); format: cell-based; conditions: P. aeruginosa 27853, read-out: MIC, 27853
Method in brief: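 Microbroth dilution; MIC (μg/mL) = lowest concentration with no macroscopically visible growth.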

K. pneumoniae MXX1232 = assay: Antibacterial activity, MIC, resistant strain (Table 4); format: cell-based; conditions: Klebsiella pneumoniae, MXX1232; resistant K. pneumoniae MMX1232, multi-drug resistant clinical isolate; read-out: MIC, MMX1232
Method in brief: as §1

A. baumannii MXX2240 = assay: as above; format: cell-based; conditions: Acinetobacter baumannii, MXX2240; resistant A. baumannii MMX2240, multi-drug resistant clinical isolate; read-out: MIC, MMX2240
Method in brief: as §1

Row | SMILES | MIC [1] | MIC [2] | MIC [3] | MIC [4] | MIC (E. coli 25922) | MIC (E. coli LZ3111) | MIC [5] | MIC (K. pneumoniae MXX1232) | MIC (A. baumannii MXX2240)
1 | CCNCc1cc2ccc(-c3[nH]c(=O)c(C(=O)O)c(O)c3C)cc2[nH]1.Cl [Cpd 444, 6-(2-((ethylamino)methyl)-1H-indol-6-yl)-4-hydroxy-5-methyl-2-oxo-1,2-dihydropyridine-3-carboxylic acid hydrochloride] | 12.5 to 150 µg/mL | 12.5 to 150 µg/mL | 12.5 to 150 µg/mL | 12.5 to 150 µg/mL | 12.5 to 150 µg/mL | 12.5 to 150 µg/mL | 12.5 to 150 µg/mL | 12.5 to 150 µg/mL | 12.5 to 150 µg/mL
2 | CN(C)Cc1cc2cc(-c3[nH]c(=O)c(C(=O)O)c(O)c3C3CC3)ccc2n1C [Cpd 322, 5-cyclopropyl-6-(2-((dimethylamino)methyl)-1-methyl-1H-indol-5-yl)-4-hydroxy-2-oxo-1,2-dihydropyridine-3-carboxylic acid] | 12.5 to 150 µg/mL (≈ 32.8 to 393 µM) | 12.5 to 150 µg/mL (≈ 32.8 to 393 µM) | 12.5 to 150 µg/mL (≈ 32.8 to 393 µM) | 1 to 3.5 µg/mL (≈ 2.62 to 9.18 µM) | 12.5 to 150 µg/mL (≈ 32.8 to 393 µM) | 12.5 to 150 µg/mL (≈ 32.8 to 393 µM) | 12.5 to 150 µg/mL (≈ 32.8 to 393 µM) | 12.5 to 150 µg/mL (≈ 32.8 to 393 µM) | 12.5 to 150 µg/mL (≈ 32.8 to 393 µM)
3 | CCc1cc(C(=O)O)c(=O)[nH]c1-c1ccc2nccn2c1.Cl [Cpd 51, 5-ethyl-6-(imidazo[1,2-a]pyridin-6-yl)-2-oxo-1,2-dihydropyridine-3-carboxylic acid hydrochloride] | 12.5 to 150 µg/mL | 12.5 to 150 µg/mL | 12.5 to 150 µg/mL | 12.5 to 150 µg/mL | 12.5 to 150 µg/mL | 12.5 to 150 µg/mL | 12.5 to 150 µg/mL | 12.5 to 150 µg/mL | 12.5 to 150 µg/mL
4 | CCc1c(-c2cn(C)c3ccccc23)[nH]c(=O)c(C(=O)O)c1O [Cpd 14, 5-ethyl-4-hydroxy-6-(1-methyl-1H-indol-3-yl)-2-oxo-1,2-dihydropyridine-3-carboxylic acid] | 12.5 to 150 µg/mL (≈ 40 to 480 µM) | 12.5 to 150 µg/mL (≈ 40 to 480 µM) | 3.5 to 12.5 µg/mL (≈ 11.2 to 40 µM) | 1 to 3.5 µg/mL (≈ 3.2 to 11.2 µM) | 12.5 to 150 µg/mL (≈ 40 to 480 µM) | 12.5 to 150 µg/mL (≈ 40 to 480 µM) | 12.5 to 150 µg/mL (≈ 40 to 480 µM) | 12.5 to 150 µg/mL (≈ 40 to 480 µM) | 12.5 to 150 µg/mL (≈ 40 to 480 µM)
5 | CCCc1ccc2cc(-c3[nH]c(=O)c(C(=O)O)c(O)c3CC)[nH]c2c1 [Cpd 384, 5-ethyl-4-hydroxy-2-oxo-6-(6-propyl-1H-indol-2-yl)-1,2-dihydropyridine-3-carboxylic acid] | 12.5 to 150 µg/mL (≈ 36.7 to 441 µM) | 12.5 to 150 µg/mL (≈ 36.7 to 441 µM) | 12.5 to 150 µg/mL (≈ 36.7 to 441 µM) | < 1 µg/mL | 12.5 to 150 µg/mL (≈ 36.7 to 441 µM) | 12.5 to 150 µg/mL (≈ 36.7 to 441 µM) | 12.5 to 150 µg/mL (≈ 36.7 to 441 µM) | 12.5 to 150 µg/mL (≈ 36.7 to 441 µM) | 12.5 to 150 µg/mL (≈ 36.7 to 441 µM)
6 | COc1c(-c2ccc3c(ccn3C)c2)[nH]c(=O)c(C(=O)O)c1O [Cpd 377, 4-hydroxy-5-methoxy-6-(1-methyl-1H-indol-5-yl)-2-oxo-1,2-dihydropyridine-3-carboxylic acid] | 12.5 to 150 µg/mL (≈ 39.8 to 477 µM) | 12.5 to 150 µg/mL (≈ 39.8 to 477 µM) | 12.5 to 150 µg/mL (≈ 39.8 to 477 µM) | < 1 µg/mL | 12.5 to 150 µg/mL (≈ 39.8 to 477 µM) | 3.5 to 12.5 µg/mL (≈ 11.1 to 39.8 µM) | 12.5 to 150 µg/mL (≈ 39.8 to 477 µM) | 12.5 to 150 µg/mL (≈ 39.8 to 477 µM) | 3.5 to 12.5 µg/mL (≈ 11.1 to 39.8 µM)
7 | CCc1c(-c2cc3c(N(C)C)nc(C)cn3n2)[nH]c(=O)c(C(=O)O)c1O [Cpd 401, 6-(4-(dimethylamino)-6-methylpyrazolo[1,5-a]pyrazin-2-yl)-5-ethyl-4-hydroxy-2-oxo-1,2-dihydropyridine-3-carboxylic acid] | 12.5 to 150 µg/mL (≈ 35 to 420 µM) | 12.5 to 150 µg/mL (≈ 35 to 420 µM) | 3.5 to 12.5 µg/mL (≈ 9.79 to 35 µM) | 3.5 to 12.5 µg/mL (≈ 9.79 to 35 µM) | 12.5 to 150 µg/mL (≈ 35 to 420 µM) | 12.5 to 150 µg/mL (≈ 35 to 420 µM) | 12.5 to 150 µg/mL (≈ 35 to 420 µM) | 12.5 to 150 µg/mL (≈ 35 to 420 µM) | 12.5 to 150 µg/mL (≈ 35 to 420 µM)
8 | CCc1c(-c2ccc3[nH]c(-c4ccc(C(F)(F)F)cc4)cc3c2)[nH]c(=O)c(C(=O)O)c1O [Cpd 455, 5-ethyl-4-hydroxy-2-oxo-6-(2-(4-(trifluoromethyl)phenyl)-1H-indol-5-yl)-1,2-dihydropyridine-3-carboxylic acid] | 12.5 to 150 µg/mL (≈ 28.3 to 339 µM) | 12.5 to 150 µg/mL (≈ 28.3 to 339 µM) | 3.5 to 12.5 µg/mL (≈ 7.91 to 28.3 µM) | < 1 µg/mL | 12.5 to 150 µg/mL (≈ 28.3 to 339 µM) | 12.5 to 150 µg/mL (≈ 28.3 to 339 µM) | 12.5 to 150 µg/mL (≈ 28.3 to 339 µM) | 12.5 to 150 µg/mL (≈ 28.3 to 339 µM) | 12.5 to 150 µg/mL (≈ 28.3 to 339 µM)
9 | CCc1cc(C(=O)O)c(=O)[nH]c1-c1ccc2c(c1)cc(CN1CCOCC1)n2C [Cpd 137, 5-ethyl-6-(1-methyl-2-(morpholinomethyl)-1H-indol-5-yl)-2-oxo-1,2-dihydropyridine-3-carboxylic acid] | 3.5 to 12.5 µg/mL (≈ 8.85 to 31.6 µM) | 1 to 3.5 µg/mL (≈ 2.53 to 8.85 µM) | 12.5 to 150 µg/mL (≈ 31.6 to 379 µM) | < 1 µg/mL | 1 to 3.5 µg/mL (≈ 2.53 to 8.85 µM) | 12.5 to 150 µg/mL (≈ 31.6 to 379 µM) | 12.5 to 150 µg/mL (≈ 31.6 to 379 µM) | 12.5 to 150 µg/mL (≈ 31.6 to 379 µM) | 12.5 to 150 µg/mL (≈ 31.6 to 379 µM)
